Test results as given in patent publication US6573218B1, “Fused-benzene derivatives useful as herbicides” (Ishihara Sangyo Kaisha, Ltd., priority 1998, dated 2003).

Assays:
Type in all cases: in vivo
[1] = tested on: large crabgrass (Digitaria sanguinalis, DIGSA); assay: Post-emerge greenhouse herbicide test; conditions: 14 days after application
From the text: (§1) A standard greenhouse herbicide activity screening system was used to evaluate the herbicidal efficacy and crop safety of these test compounds. Seven broadleaf weed species including redroot pigweed (Amaranthus retroflexus, AMARE), velvetleaf (Abutilon theophrasti, ABUTH), sicklepod (Cassia obtusifolia, CASOB), ivyleaf morningglory (Ipomoea hederacea, IPOHE), lambsquarters (Chenopodium album, CHEAL), common ragweed (Ambrosia artemisiifolia L., AMBEL), and cocklebur (Xanthium strumarium, XANST) were used as test species. Four grass weed species including green foxtail (Setaria viridis, SETVI), barnyardgrass (Echinochloa crus-galli, ECHCG), johnsongrass (Sorghum halepense, SORHA), and large crabgrass (Digitaria sanguinalis, DIGSA) were also used. In addition, three crop species, field corn (Zea mays L., var. Dekalb 527, CORN), soybean (Glycine max L., var. Pella 86, SOY), and upland rice (Ory0a sp., var.Tebonnet, RICE) were included.
(§2) All plants were grown in 10 cm square plastic pots which were filled with a sandy loam soil mix. For pre-emerge tests, seeds were planted one day prior to application of the test compounds. For post-emerge tests, seeds were planted 8-21 days prior to the test to allow emergence and good foliage development prior to application of the test substances. At the time of the post-emerge application, plants of all species were usually at the 2-3 leaf stage of development.
(§3) All test compounds were dissolved in acetone and applied to the test units in a volume of 187 l/ha. Test materials were applied at rates ranging from 15 g ai/ha to 1000 g ai/ha using a track sprayer equipped with a TJ8001E even flow flat fan spray nozzle. Plants were arranged on a shelf so that the top of the canopy (post-emerge) or top of the soil surface (pre-emerge) was 40-45 cm below the nozzle. Pressurized air was used to force the test solution through the nozzle as it was mechanically advanced over the top of all test plants/pots. This application simulates a typical commercial field herbicide application.
(§4) In the post-emerge test, a commercial non-ionic surfactant was also included (0.25% v/v) to enhance wetting of the leaf surfaces of target plants. Immediately after application, test units of the pre-emerge applications were watered at the soil surface to incorporate the test materials.
(§5) At 14 days after application of the test materials, phytotoxicity ratings were recorded. A rating scale of 0-100 was used as previously described in Research Methods in Weed Science, 2nd edition, B. Truelove, Ed., Southern Weed Science Society, Auburn University, Auburn, Ala., 1977. Briefly, “0” corresponds to no damage and “100” corresponds to complete death of all plants in the test unit. This scale was used both to determine efficacy against weed species and damage to crop species. Herbicide activity data for various compounds of this invention, which are shown by compound No. in Tables 1-14, are shown in Tables 16 and 17.

[2] = tested on: lambsquarters (Chenopodium album, CHEAL); assay: Post-emerge greenhouse herbicide test; conditions: 14 days after application
From the text: as §1, §2, §3, §4, §5

[3] = tested on: redroot pigweed (Amaranthus retroflexus, AMARE); assay: Post-emerge greenhouse herbicide test; conditions: 14 days after application
From the text: as §1, §2, §3, §4, §5

[4] = tested on: johnsongrass (Sorghum halepense, SORHA); assay: Post-emerge greenhouse herbicide test; conditions: 14 days after application
From the text: as §1, §2, §3, §4, §5

[5] = tested on: ivyleaf morningglory (Ipomoea hederacea, IPOHE); assay: Post-emerge greenhouse herbicide test; conditions: 14 days after application
From the text: as §1, §2, §3, §4, §5

[6] = tested on: green foxtail (Setaria viridis, SETVI); assay: Post-emerge greenhouse herbicide test; conditions: 14 days after application
From the text: as §1, §2, §3, §4, §5

[7] = tested on: velvetleaf (Abutilon theophrasti, ABUTH); assay: Post-emerge greenhouse herbicide test; conditions: 14 days after application
From the text: as §1, §2, §3, §4, §5

[8] = tested on: sicklepod (Cassia obtusifolia, CASOB); assay: Post-emerge greenhouse herbicide test; conditions: 14 days after application
From the text: as §1, §2, §3, §4, §5

[9] = tested on: barnyardgrass (Echinochloa crus-galli, ECHCG); assay: Post-emerge greenhouse herbicide test; conditions: 14 days after application
From the text: as §1, §2, §3, §4, §5

[10] = tested on: field corn (Zea mays L., var. Dekalb 527, CORN); assay: Post-emerge greenhouse crop damage test
From the text: as §1, §2, §3, §4, §5

[11] = tested on: soybean (Glycine max L., var. Pella 86, SOY); assay: Post-emerge greenhouse crop damage test
From the text: as §1, §2, §3, §4, §5

[12] = tested on: upland rice (Ory0a sp., var.Tebonnet, RICE); assay: Post-emerge greenhouse crop damage test
From the text: as §1, §2, §3, §4, §5

[13] = tested on: field corn (Zea mays L., var. Dekalb 527, CORN); assay: Pre-emerge greenhouse crop damage test
From the text: as §1, §2, §3, §4, §5

[14] = tested on: soybean (Glycine max L., var. Pella 86, SOY); assay: Pre-emerge greenhouse crop damage test
From the text: as §1, §2, §3, §4, §5

[15] = tested on: upland rice (Ory0a sp., var.Tebonnet, RICE); assay: Pre-emerge greenhouse crop damage test; conditions: in vivo
From the text: as §1, §2, §3, §4, §5

[16] = tested on: large crabgrass (Digitaria sanguinalis, DIGSA); assay: Pre-emerge greenhouse herbicide test; conditions: 14 days after application, scale 0-100 (0 no damage, 100 complete death)
From the text: as §1, §2, §3, §4, §5

[17] = tested on: lambsquarters (Chenopodium album, CHEAL); assay: Pre-emerge greenhouse herbicide test; conditions: 14 days after application, scale 0-100 (0 no damage, 100 complete death)
From the text: as §1, §2, §3, §4, §5

[18] = tested on: redroot pigweed (Amaranthus retroflexus, AMARE); assay: Pre-emerge greenhouse herbicide test; conditions: 14 days after application, scale 0-100 (0 no damage, 100 complete death)
From the text: as §1, §2, §3, §4, §5

[19] = tested on: johnsongrass (Sorghum halepense, SORHA); assay: Pre-emerge greenhouse herbicide test; conditions: 14 days after application, scale 0-100 (0 no damage, 100 complete death)
From the text: as §1, §2, §3, §4, §5

[20] = tested on: ivyleaf morningglory (Ipomoea hederacea, IPOHE); assay: Pre-emerge greenhouse herbicide test; conditions: 14 days after application, scale 0-100 (0 no damage, 100 complete death)
From the text: as §1, §2, §3, §4, §5

[21] = tested on: green foxtail (Setaria viridis, SETVI); assay: Pre-emerge greenhouse herbicide test; conditions: 14 days after application, scale 0-100 (0 no damage, 100 complete death)
From the text: as §1, §2, §3, §4, §5

[22] = tested on: velvetleaf (Abutilon theophrasti, ABUTH); assay: Pre-emerge greenhouse herbicide test; conditions: 14 days after application, scale 0-100 (0 no damage, 100 complete death)
From the text: as §1, §2, §3, §4, §5

[23] = tested on: sicklepod (Cassia obtusifolia, CASOB); assay: Pre-emerge greenhouse herbicide test; conditions: 14 days after application, scale 0-100 (0 no damage, 100 complete death)
From the text: as §1, §2, §3, §4, §5

[24] = tested on: barnyardgrass (Echinochloa crus-galli, ECHCG); assay: Pre-emerge greenhouse herbicide test; conditions: 14 days after application, scale 0-100 (0 no damage, 100 complete death)
From the text: as §1, §2, §3, §4, §5

[25] = 250 g ai/ha, post-emerge, 14 days after application
[26] = pre-emerge, 250 g ai/ha, 14 days after application, scale 0-100 (0 no damage, 100 complete death)
[27] = var. Dekalb 527, field corn (Zea mays L.), in vivo, 14 days
[28] = var. Pella 86, soybean (Glycine max L.), in vivo, 14 days

In the case of `CCOC(=O)c1nc2c(-n3c(=O)cc(C(F)(F)F)n(C)c3=O)c(F)cc(Cl)c2oc1=O` [Compound 3-5], the “Post-emerge Herbicidal Activity DIGSA (phytotoxicity rating 0-100)” value ([1]; 250 g ai/ha) is reported as 0, the “Post-emerge Herbicidal Activity CHEAL (phytotoxicity rating 0-100)” value ([2]; 250 g ai/ha) is reported as 0 and the “Post-emerge Herbicidal Activity AMARE (phytotoxicity rating 0-100)” value ([3]; 250 g ai/ha) is reported as 20. For the same molecule, the “Post-emerge Herbicidal Activity SORHA (phytotoxicity rating 0-100)” value ([4]; 250 g ai/ha) was 0, the “Post-emerge Herbicidal Activity IPOHE (phytotoxicity rating 0-100)” value ([5]; 250 g ai/ha) was 0 and the “Post-emerge Herbicidal Activity SETVI (phytotoxicity rating 0-100)” value ([6]; 250 g ai/ha) was 10. The “Post-emerge Herbicidal Activity ABUTH (phytotoxicity rating 0-100)” value ([7]; 250 g ai/ha) was 60, the “Post-emerge Herbicidal Activity CASOB (phytotoxicity rating 0-100)” value ([8]; 250 g ai/ha) was 0 and the “Post-emerge Herbicidal Activity ECHCG (phytotoxicity rating 0-100)” value ([9]; 250 g ai/ha) was 0. For the same molecule, the “Post-emerge crop damage CORN (phytotoxicity rating 0-100)” value [10, 25] was 0, the “Post-emerge crop damage SOY (phytotoxicity rating 0-100)” value [11, 25] was 0 and the “Post-emerge crop damage RICE (phytotoxicity rating 0-100)” value [12, 25] was 0. The “Pre-emerge Herbicidal Activity CORN (crop damage rating)” value [13, 26] was 0, the “Pre-emerge Herbicidal Activity SOY (crop damage rating)” value [14, 26] was 0 and the “Pre-emerge Herbicidal Activity RICE (crop damage rating)” value [15] was 0. The “Pre-emerge Herbicidal Activity DIGSA (phytotoxicity rating)” value ([16]; 250 g ai/ha) was 0, the “Pre-emerge Herbicidal Activity CHEAL (phytotoxicity rating)” value ([17]; 250 g ai/ha) was 70 and the “Pre-emerge Herbicidal Activity AMARE (phytotoxicity rating)” value ([18]; 250 g ai/ha) was 50. For the same molecule, the “Pre-emerge Herbicidal Activity SORHA (phytotoxicity rating)” value ([19]; 250 g ai/ha) was 0, the “Pre-emerge Herbicidal Activity IPOHE (phytotoxicity rating)” value ([20]; 250 g ai/ha) was 0 and the “Pre-emerge Herbicidal Activity SETVI (phytotoxicity rating)” value ([21]; 250 g ai/ha) was 0. For the same molecule, the “Pre-emerge Herbicidal Activity ABUTH (phytotoxicity rating)” value ([22]; 250 g ai/ha) was 65, the “Pre-emerge Herbicidal Activity CASOB (phytotoxicity rating)” value ([23]; 250 g ai/ha) was 0 and the “Pre-emerge Herbicidal Activity ECHCG (phytotoxicity rating)” value ([24]; 250 g ai/ha) was 0.
`Cn1c(C(F)(F)F)cc(=O)n(-c2c(F)cc(Cl)c3c2NCCO3)c1=O` [Compound 2-1, 3-(8-Chloro-6-fluoro-3,4-dihydro-2H-1,4-benzoxazin-5-yl)-1-methyl-6-trifluoromethyl-2,4(1H,3H)-pyrimidindione] was tested, and the “Post-emerge Herbicidal Activity DIGSA (phytotoxicity rating 0-100)” value ([1]; 125 g ai/ha) was 0, the “Post-emerge Herbicidal Activity CHEAL (phytotoxicity rating 0-100)” value ([2]; 125 g ai/ha) was 100 and the “Post-emerge Herbicidal Activity AMARE (phytotoxicity rating 0-100)” value ([3]; 125 g ai/ha) was 90. For the same molecule, the “Post-emerge Herbicidal Activity SORHA (phytotoxicity rating 0-100)” value ([4]; 125 g ai/ha) was 0, the “Post-emerge Herbicidal Activity IPOHE (phytotoxicity rating 0-100)” value ([5]; 125 g ai/ha) was 100 and the “Post-emerge Herbicidal Activity SETVI (phytotoxicity rating 0-100)” value ([6]; 125 g ai/ha) was 50. The “Post-emerge Herbicidal Activity ABUTH (phytotoxicity rating 0-100)” value ([7]; 125 g ai/ha) was 100, the “Post-emerge Herbicidal Activity CASOB (phytotoxicity rating 0-100)” value ([8]; 125 g ai/ha) was 80 and the “Post-emerge Herbicidal Activity ECHCG (phytotoxicity rating 0-100)” value ([9]; 125 g ai/ha) was 10. For the same molecule, the “Post-emerge crop damage CORN (phytotoxicity rating 0-100)” value [10, 27] was 20, the “Post-emerge crop damage SOY (phytotoxicity rating 0-100)” value [11, 28] was 90 and the “Post-emerge crop damage RICE (phytotoxicity rating 0-100)” value ([12]; var. Tebonnet, upland rice (Ory0a sp.), in vivo, 14 days) was 40. The “Pre-emerge Herbicidal Activity CORN (crop damage rating)” value [13, 27] was 20, the “Pre-emerge Herbicidal Activity SOY (crop damage rating)” value [14, 28] was 50 and the “Pre-emerge Herbicidal Activity RICE (crop damage rating)” value ([15]; var. Tebonnet, upland rice (Ory0a sp.), 14 days) was 70. The “Pre-emerge Herbicidal Activity DIGSA (phytotoxicity rating)” value ([16]; 125 g ai/ha) was 100, the “Pre-emerge Herbicidal Activity CHEAL (phytotoxicity rating)” value ([17]; 125 g ai/ha) was 100 and the “Pre-emerge Herbicidal Activity AMARE (phytotoxicity rating)” value ([18]; 125 g ai/ha) was 100. For the same molecule, the “Pre-emerge Herbicidal Activity SORHA (phytotoxicity rating)” value ([19]; 125 g ai/ha) was 95, the “Pre-emerge Herbicidal Activity IPOHE (phytotoxicity rating)” value ([20]; 125 g ai/ha) was 50 and the “Pre-emerge Herbicidal Activity SETVI (phytotoxicity rating)” value ([21]; 125 g ai/ha) was 100. For the same molecule, the “Pre-emerge Herbicidal Activity ABUTH (phytotoxicity rating)” value ([22]; 125 g ai/ha) was 100, the “Pre-emerge Herbicidal Activity CASOB (phytotoxicity rating)” value ([23]; 125 g ai/ha) was 40 and the “Pre-emerge Herbicidal Activity ECHCG (phytotoxicity rating)” value ([24]; 125 g ai/ha) was 50.
